Data on 19 compounds can be found in patent publication US9145445B2 (priority 2003, dated 2015).

Series [1] relates to PT immobilized on Streptavidin beads.
For a further series, the system named is purified Pertussis Toxin. Nature of the series: binding of purified PT to peptides immobilized on streptavidin sepharose. Set-up: species or system Bordetella pertussis. The conditions noted are these: ~200 pmol peptide on streptavidin sepharose, 100 pmol purified PT, gel, silver staining.
Series [2] deals with PT. Nature of the series: estimation of peptides binding capacity (fraction of binding active peptide). Details: species or system Bordetella pertussis. The conditions noted are these: 20 pmol sepharose-immobilized peptide, 100 pmol PT (500 nM); 1:1 binding assumed. The method, then: For estimation of peptides binding capacity 20 pmol of sepharose-immobilized peptides were incubated with an excess of 100 pmol PT in a volume of 200 μl HEPES buffer (corresponds to 500 nM PT). After washing, the fraction of peptide-streptavidin sepharose bound PT was quantified by gel analysis. This allows directly to calculate the fraction of binding active peptide under the applied conditions (assuming the PT/peptide binding ratio is 1:1). Under the assumption that a concentration of 500 nM PT is high enough to reach Bmax for all peptides. The values presented therein are estimations for the expectable binding capacities of the peptides. An exact evaluation of binding capacity (Bmax) and dissociation constant (KD) of the most suitable binder may also be performed.
PT, sequence (P04977 35-269 limits assumed): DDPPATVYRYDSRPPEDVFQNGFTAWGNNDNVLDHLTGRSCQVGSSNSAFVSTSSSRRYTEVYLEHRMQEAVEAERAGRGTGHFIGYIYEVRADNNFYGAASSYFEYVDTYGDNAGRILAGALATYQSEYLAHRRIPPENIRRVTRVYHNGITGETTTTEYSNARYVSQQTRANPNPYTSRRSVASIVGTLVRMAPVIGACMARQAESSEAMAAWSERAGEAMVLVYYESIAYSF
PT, sequence (P04978 28-226 limits assumed, further chain): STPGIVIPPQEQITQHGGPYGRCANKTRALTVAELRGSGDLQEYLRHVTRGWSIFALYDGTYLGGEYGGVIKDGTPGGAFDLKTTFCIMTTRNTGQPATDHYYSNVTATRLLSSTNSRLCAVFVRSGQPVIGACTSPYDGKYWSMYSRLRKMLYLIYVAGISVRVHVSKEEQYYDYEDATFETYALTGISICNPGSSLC
PT, sequence (P04979 29-227 limits assumed, further chain): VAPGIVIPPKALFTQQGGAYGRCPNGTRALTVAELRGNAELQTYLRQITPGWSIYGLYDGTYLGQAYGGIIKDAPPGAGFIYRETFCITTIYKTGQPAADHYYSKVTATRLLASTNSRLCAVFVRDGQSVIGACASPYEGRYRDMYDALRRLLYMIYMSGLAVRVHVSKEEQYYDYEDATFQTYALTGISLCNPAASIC
PT, sequence (P0A3R5 43-152 limits assumed, further chain): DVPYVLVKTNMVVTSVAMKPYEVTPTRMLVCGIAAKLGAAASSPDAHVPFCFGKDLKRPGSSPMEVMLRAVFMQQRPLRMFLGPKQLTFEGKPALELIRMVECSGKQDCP
PT, sequence (P04981 35-133 limits assumed, further chain): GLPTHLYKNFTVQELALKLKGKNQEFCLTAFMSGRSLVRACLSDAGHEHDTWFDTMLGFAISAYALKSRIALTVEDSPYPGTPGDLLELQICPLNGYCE

For series [3], the system named is PT. The following applies: phage display, Bogdan, et al.; cited from earlier work.
Series [4] concerns PT. Nature of the series: stability of PT/peptide complexes, BIAcore 2000. The conditions noted are these: for pH range stability of the complex (stable): PT/peptide complex, instable at pH 2.5 or 10.5. The class given is binding, Bordetella pertussis. The method, then:
The stability of PT/peptide complexes were investigated using the BIAcore 2000 instrument under different pH and salt conditions that were shown before not to interfere with the PT hexamer stability. 500-1000 RU of the synthetic peptides were immobilized on BIAcore streptavidin chips. To allow binding of PT to the immobilized peptides, 20 nM purified PT in HEPES buffer was injected for 1 minute. After equilibration with HBS/EP running buffer (0.01 M HEPES pH 7.4, 0.15 M NaCl 3 mM EDTA 0.005% polysorbate 20 (v/v)) the PT/peptide complexes were washed by injection of • (a) 100 mM carbonate buffer at pH 10.5 and 9.5 • (b) 10 mM acetate buffer at pH 5.5, 5.0, 4.5, and 4.0 • (c) 10 mM glycine buffer at pH 3.0 and 2.5 • (d) 0.5, 1.0, 1.5, 2.0 M NaCl in 10 mM acetate buffer, pH 6.0, • (e) 0.5, 1.0, 1.5, 2.0 M NaCl in 50 mM Tris/HCl buffer, pH 8.5, • (f) 0.5, 1.0, 1.5, 2.0 M KCl in 10 mM acetate buffer, pH 6.0, • (g) 0.5, 1.0, 1.5, 2.0 M KCl in 50 mM Tris/HCl buffer, pH 8.5, • (h) 0.5, 1.0, 1.5, 2.0 M NaCl in 10 mM acetate buffer, pH 6.0, • (i) 0.5, 1.0, 1.5, 2.0 M NaCl in 50 mM Tris/HCl buffer, pH 8.5.
After the end of each buffer injection, the chip was equilibrated with HBS/EP running buffer. The loss of PT hexamer on the chip under the applied buffer conditions (difference of measured RU signal before and after buffer injection) reflects the PT/peptide complex stability.

The test system of series [5] is chip immobilized biotinylated PT. The conditions noted are these: BIAcore streptavidin chip. From the text: The quality of the biotinylation reaction was controlled by analysis of the interaction of biotinylated PT with a BIAcore streptavidin chip using BIAcore instrument (BIAcore 2000).
chip immobilized biotinylated PT, sequence (P04977 35-269 limits assumed): as the sequence (P04977 35-269 limits assumed) above
chip immobilized biotinylated PT, sequence (P04978 28-226 limits assumed, further chain): as the sequence (P04978 28-226 limits assumed, further chain) above
chip immobilized biotinylated PT, sequence (P04979 29-227 limits assumed, further chain): as the sequence (P04979 29-227 limits assumed, further chain) above
chip immobilized biotinylated PT, sequence (P0A3R5 43-152 limits assumed, further chain): as the sequence (P0A3R5 43-152 limits assumed, further chain) above
chip immobilized biotinylated PT, sequence (P04981 35-133 limits assumed, further chain): as the sequence (P04981 35-133 limits assumed, further chain) above
A general note: SPR reads the build-up and loss of mass on a sensor chip optically.

Series [6] relates to PT. The format is binding, Bordetella pertussis.
For series [7], the system named is PT immobilized on a CM5 chip. The class given is binding, Bordetella pertussis.
PT immobilized on a CM5 chip, sequence (P04977 35-269 limits assumed): as the sequence (P04977 35-269 limits assumed) above
PT immobilized on a CM5 chip, sequence (P04978 28-226 limits assumed, further chain): as the sequence (P04978 28-226 limits assumed, further chain) above
PT immobilized on a CM5 chip, sequence (P04979 29-227 limits assumed, further chain): as the sequence (P04979 29-227 limits assumed, further chain) above
PT immobilized on a CM5 chip, sequence (P0A3R5 43-152 limits assumed, further chain): as the sequence (P0A3R5 43-152 limits assumed, further chain) above
PT immobilized on a CM5 chip, sequence (P04981 35-133 limits assumed, further chain): as the sequence (P04981 35-133 limits assumed, further chain) above
Series [8] concerns PT. In words: reutilization of peptide sepharose for repeated PT binding and elution. Details: species or system Bordetella pertussis. The conditions noted are these: 4 cycles of PT binding, carbonate pH 10.5 elution, 10 mM HCl regeneration. On the procedure: For binding of PT each peptide streptavidin sepharose was incubated with 400 μl sample B (adjusted to pH 7.0-7.5 by addition of HC1) for 1 hour at RT and washed 4 times with 50 mM Tris/HC1, pH 7.5 (each 200 μl). PT was eluted by 4 consecutive elutions with 100 mM Carbonate buffer at pH 10.5 (each 20 μl). Subsequently the column matrices were regenerated by three washes with 10 mM HC1 (l×20 μl, 2×100 μl) and afterwards neutralized by two washes with 200 μl 50 mM Tris/HC1, pH 7.5. This binding, elution and regeneration procedure was applied to the peptide sepharose for three additional times. […] (FIG. 25). • 5. Large-scale FPLC-Purification of PT

For series [9], the system named is PT. The format is binding, Bordetella pertussis. The conditions noted are these: input of 400 pmol peptide to 1 μl streptavidin sepharose.

Where “and” joins values, the source holds several entries; their conditions need not be identical. Equal values may be shown once. Read-outs that look alike come from different tables or passages of the source. Where a SMILES comes first, the peptide text is derived from it.

PT immobilized on Streptavidin beads, sequence (P04977 35-269 limits assumed): as the sequence (P04977 35-269 limits assumed) above
PT immobilized on Streptavidin beads, sequence (P04978 28-226 limits assumed, further chain): as the sequence (P04978 28-226 limits assumed, further chain) above
PT immobilized on Streptavidin beads, sequence (P04979 29-227 limits assumed, further chain): as the sequence (P04979 29-227 limits assumed, further chain) above
PT immobilized on Streptavidin beads, sequence (P0A3R5 43-152 limits assumed, further chain): as the sequence (P0A3R5 43-152 limits assumed, further chain) above
PT immobilized on Streptavidin beads, sequence (P04981 35-133 limits assumed, further chain): as the sequence (P04981 35-133 limits assumed, further chain) above
purified Pertussis Toxin, sequence (P04977 35-269 limits assumed): as the sequence (P04977 35-269 limits assumed) above
purified Pertussis Toxin, sequence (P04978 28-226 limits assumed, further chain): as the sequence (P04978 28-226 limits assumed, further chain) above
purified Pertussis Toxin, sequence (P04979 29-227 limits assumed, further chain): as the sequence (P04979 29-227 limits assumed, further chain) above
purified Pertussis Toxin, sequence (P0A3R5 43-152 limits assumed, further chain): as the sequence (P0A3R5 43-152 limits assumed, further chain) above
purified Pertussis Toxin, sequence (P04981 35-133 limits assumed, further chain): as the sequence (P04981 35-133 limits assumed, further chain) above

Regarding Pertussis toxin [PT], the “pH range over which Pertussis toxin hexamer is stable” value (BIAcore, buffers pH 2-10.5) is on record as 2.5-10.5 pH. Also, the “PT hexamer stability (%)” value was 93% (pH 2); 98% (pH 2.5); 100% (pH 3); 100% (pH 4); 100% (pH 4.5); 100% (pH 5). Further, the “PT hexamer stability (%)” value is, setting by setting: (pH 5.5) 100%; (pH 8.5) 100%; (pH 9.6) 98%; (pH 10.5) 95%.

As to “MGRGSHHHHHHARSNVIPLNEVWYDTGWDRPHRSRLSIDDDANAPKASAI [PP26 variant 9]”, the “target binding to PT in the presence of AP process fluids” value (shortened to “target binding to PT in the presence”) in series [1] was “not reduced”.

Take “MGRGSHHHHHHARSTMNTNRMDIQRLMTNHVKRDSSPGSIDANAPKASAI [PP26 variant 6]”: in series [1], the “target binding to PT in the presence” value is reported as “not reduced”.

Take “SGCVKKDELCELAIDECCEPLECTKGDLGFRKCG [gurmarin 19n]”: the “binding to purified PT” value in the series with purified Pertussis Toxin is recorded as “clear binding”.

As for “SGCVKKDELCELAVDECCEPLECFQMGHGFKRCG [gurmarin 10n]”, the “Fraction of binding active peptide” value in the series with PT [2] is on record as more than 5%. Moreover, the “binding to purified PT” value in the series on purified Pertussis Toxin is reported as “clear binding”.

In the case of “RSSHCRHRNCHTITRGNMRIETPNNIRKDA [pp26 5n]”, in the series with PT [2], the “Fraction of binding active peptide” value is more than 5%. Further, the “binding to purified PT” value in the series on purified Pertussis Toxin was “clear binding”.

Regarding NGSFSGC [3G8], the PT-binding capacity result in the series with PT [3] is listed as “PT-binding capacity”.

In the case of “MHHHHHHSGSSSGSGCVKKDELCELAVDECCEPLECFQMGHGFKRCGSGSSGSS [gurmarin variant 10]”, in series [1], the “target binding to PT in the presence” value is given as “not influenced”.

With “RSSHCRHRNCHTITRGNMRIETPNNIRKDAK [pp26 5c]”, in the series with purified Pertussis Toxin, the “binding to purified PT” value is “clear binding”.

On to “MGRGSHHHHHHARSSHCRHRNCHTITRGNMRIETPNNIRKDANAPKASAI [PP26 variant 5]”, for which the “target binding to PT in the presence” value in series [1] is reported as “not reduced”.

On to “RSWRDTRKLHMRHYFPLAIDSYWDHTLRDA [pp26 15n]”, for which, in the series with PT [2], the “Fraction of binding active peptide” value was more than 12.5%. Besides, the “binding to purified PT” value in the series on purified Pertussis Toxin is listed as “clear binding”. In addition, in the series with PT [4], the “pH range stability of the complex (stable)” value (from here on “pH range stability”) is on record as 3-9 pH. In addition, in the series on PT [4] (pH 6), the “KCl stability of the complex (stable)” value stood at 2 M, the “MgCl2 stability of the complex (stable)” value is reported as “to 2M” and the “NaCl stability of the complex (stable)” value stood at 2 M. Moreover, in the series on PT [4] (pH 8.5), the “KCl stability of the complex (stable)” value is 2 M, the “MgCl2 stability of the complex: complete elution” value is reported as “not” and the “NaCl stability of the complex (stable)” value is 2 M. Besides, the “MgCl2 stability of the complex: Elution / destabilized” value with PT [4] (pH 8.5 (50 mM Tris/HCl)) is “Elution ≧1.5, M”.

Regarding asialofetuin, in [5], the “binding signal to immobilized PT” value is approximately 400 RU and the “unspecific binding to the control cell” value is reported as approximately 100 RU. Moreover, in the series with PT [6], the “Amount of PT bound” value was ~8 pmol and ~16 pmol.

For NGSFSGF [3G5], in the series with PT [3], the PT-binding capacity entry is listed as “PT-binding capacity”.

In the case of `CC[C@H](C)[C@H](NC(=O)[C@H](CO)NC(=O)[C@H](CC(C)C)NC(=O)[C@H](CCCNC(=N)N)NC(=O)[C@H](CO)NC(=O)[C@H](CCCNC(=N)N)NC(=O)[C@H](Cc1c[nH]cn1)NC(=O)[C@@H]1CCCN1C(=O)[C@H](CCCNC(=N)N)NC(=O)[C@H](CC(=O)O)NC(=O)[C@H](Cc1c[nH]c2ccccc12)NC(=O)CNC(=O)[C@@H](NC(=O)[C@H](CC(=O)O)NC(=O)[C@H](Cc1ccc(O)cc1)NC(=O)[C@H](Cc1c[nH]c2ccccc12)NC(=O)[C@@H](NC(=O)[C@H](CCC(=O)O)NC(=O)[C@H](CC(N)=O)NC(=O)[C@H](CC(C)C)NC(=O)[C@@H]1CCCN1C(=O)[C@@H](NC(=O)[C@@H](NC(=O)[C@H](CC(N)=O)NC(=O)[C@H](CO)NC(=O)[C@H](CCCNC(=N)N)NC(=O)COCCOCCNC(=O)CCCC[C@@H]1SC[C@@H]2NC(=O)N[C@@H]21)C(C)C)[C@@H](C)CC)C(C)C)[C@@H](C)O)C(=O)N[C@@H](CC(=O)O)C(=O)N[C@@H](CC(=O)O)C(=O)N[C@@H](CC(=O)O)C(=O)N[C@@H](C)C(=O)O` [pp26 9n] (HELM PEPTIDE1{[O=C1N[C@H]2[C@H](CS[C@H]2CCCCC(=O)[*:2])N1].[O=C(COCCOCCN[*:1])[*:2]].R.S.N.V.I.P.L.N.E.V.W.Y.D.T.G.W.D.R.P.H.R.S.R.L.S.I.D.D.D.A}$$$$V2.0), in [7], the “Association rate constant kon” value turned out to be 130000 M⁻¹ s⁻¹ and the “Dissociation rate constant koff” value is 10^−3 s^−1.

For the compound “MHHHHHHSGSSSGSGCVKKDELCELAVDECCEPLECTKGDLGFRKCGSGSSGSS [gurmarin variant 19]”, the “target binding to PT in the presence” value in [1] is “not influenced”.

As to “SGCVKKDELCSQSVPMCCEPLECKWFNENYGICGS [gurmarin 15n]”, the “binding to purified PT” value in the series on purified Pertussis Toxin is reported as “clear binding”. For the same compound, the “reusability of peptide loaded sepharose” value in the series with PT [8] is “may be re-utilized”. Also, the “pH range stability” value in the series on PT [4] was 3-9 pH. In addition, in the series with PT [4] (pH 6), the “KCl stability of the complex (stable)” value is given as “sensitive to salt”, the “MgCl2 stability of the complex: Elution” value was “Elution ≧1M,”, the “MgCl2 stability of the complex: complete elution” value is listed as “elution ≧2M” and the “NaCl stability of the complex (stable)” value is given as “sensitive to salt”. Besides, in the series with PT [4] (pH 8.5), the “KCl stability of the complex (stable)” value is “sensitive to salt”, the “MgCl2 stability of the complex: complete elution” value is on record as “elution ≧2M” and the “NaCl stability of the complex (stable)” value is listed as “sensitive to salt”. Moreover, the “Amount of elutable peptide (effectively bound fraction of peptide)” value in the series with PT [9] is reported as 50 pmol.

“SGCVKKDELCARWDLVCCEPLECIYTSELYATCG [gurmarin 9n]”: the “Fraction of binding active peptide” value in the series with PT [2] was more than 12.5%. Also, the “binding to purified PT” value in the series with purified Pertussis Toxin was “clear binding”. For the same compound, in the series with PT [4], the “NaCl in buffer that interferes with PT/peptide complex stability” value came to 2.5 M and the “pH range stability” value is listed as 3-9 pH. In addition, in the series on PT [4] (pH 8.5), the “KCl stability of the complex (stable)” value is on record as “strong sensitive to salt” and the “NaCl stability of the complex (stable)” value is on record as “strong sensitive to salt”.

For DGSFSGF [3G2], the PT-binding capacity result in the series with PT [3] was “PT-binding capacity”.

Take “MHHHHHHSGSSSGSGCVKKDELCARWDLVCCEPLECIYTSELYATCGSGSSGSS [gurmarin variant 9]”: the “target binding to PT in the presence” value in [1] is reported as “not influenced”.
